Measured values as given in patent US20140243292A1, “SUBSITUTED 2-(CHROMAN-6-YLOXYL)-THIAZOLES AND THEIR USE AS PHARMACEUTICALS” (Sanofi, priority 2011, published 2014).
Structures can show the parent of a compound that is named as a salt.

What was measured:
human NCX1 [1] = molecular target: T1, human NCX1 (Homo sapiens, UniProt P32418); assay: NCX1 inhibition, reverse mode (Ca2+ influx into cells), FLIPR Fluo-4 assay; assay type: cell-based; conditions: inhibition of NCX1 in reverse mode (Ca2+ influx into cells); read-out: NCX1rv IC50
T1 construct: expressed in transfected cells
Summary of the method: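 Max−min Fluo-4 fluorescence (520 nm, FLIPR, 240 points at 2 s) after 20 µM final gramicidin, which drives Na+ loading and reverse-mode Ca2+ entry, gave % inhibition and IC50. Test compound was preincubated 45 min at 16 °C with Fluo-4-loaded CHO cells stably expressing human NCX1, in pH 7.4 buffer containing 3.5 mM CaCl2 and probenecid.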

human NCX1 [2] = molecular target: T1, human NCX1; assay: NCX1 inhibition, forward mode (Ca2+ efflux out of cells), FLIPR calcium assay; assay type: cell-based; conditions: for IC50: CHO cells stably expressing human NCX1, read-out: NCX1fw IC50; for inhibition at 10 µM: CHO cells stably expressing human NCX1, read-out: Inhibition in % at 10 μM, IC50 value not determined
From the text: The sodium/calcium exchanger NCX1 can transport calcium ions and sodium ions through the cell membrane. The transport is an exchange of Ca^2+ and Na^+ in two directions depending on membrane potential and ion gradients. At the first direction, named “forward mode” or “calcium export mode”, Ca^2+ is transported out of the cell and Na^+ is transported into the cell. At the other direction, named “reverse mode” or “calcium import mode”, the transport directions are vice versa. The effect of the compounds of the invention on NCX1 was determined in CHO cells stably expressing human NCX1 (gene symbol SLC8A1; cf. WO 2009/115238). The assay is based on the monitoring of intracellular Ca^2+ concentrations using a calcium-sensitive fluorescence dye which is detected by means of a FLIPR device (Fluorimetric Imaging Plate Reader, Molecular Devices).
The assay is based on the monitoring of intracellular Ca^2+ concentrations using the PBX Calcium Assay Kit from BD (Becton, Dickinson and Company) with calcium indicator dye 51-9000177BKa (BD, 640177). CHO cells expressing NCX1 were loaded with the dye, and after a preincubation period with the test compound, Ionomycin (Calbiochem, 407950) was added. Ionomycin is an ionophor for Ca^2+ ions mediating an increase of intracellular Ca^2+ ions. Consequently, intracellular Ca^2+ ions are exchanged against extracellular Na^+ ions (Ca^2+ efflux, forward mode). The decrease of intracellular Ca^2+ ions was detected by measuring the fluorescence of the calcium indicator dye at a wavelength of 520 nm by a FLIPR device.
Briefly, similarly as for the reverse mode, for the forward mode transport assay 18000 cells per well were seeded into a 96 well microplate (Corning COSTAR 3904) and incubated overnight in culture medium (cf. above). A total volume of 100 μl medium per well was used. For the preparation of the FLIPR assay, the culture medium was removed from the plates and 100 μl of assay buffer (133.8 mM NaCl (Sigma, S5886); 4.7 mM KCl (Sigma, P3911); 1.25 mM MgCl2 (Merck, 1.05833.0250); 3.5 mM CaCl2(Merck, 1.02083.0250); 5 mM glucose (Sigma, G7021); 10 mM Hepes (Sigma, H4034); pH 7.4)) were added to each well in a washing step. Assay buffer was removed, and 100 μl of a solution of the test compound in assay buffer in different concentrations were added into the wells. Further, 100 μl of dye solution (0.09% (v/v) calcium indicator dye, 9.1% (v/v) signal enhancer (from PBX Calcium Assay Kit); in assay buffer) were added into each well. The plates were incubated in the dark at room temperature for 60 min. Meanwhile a 10 μM solution of Ionomycin in assay buffer (additionally containing 0.05% fetal calf serum (cf. above); 4° C.) was prepared and stored in the wells of a 96 well microplate (96 well microplate, polypropylene, U-shape (Greiner Bio-One, 650201)). The fluorescence monitoring was performed at 60 measuring points with measurement intervals of 2 sec. After the fifth measuring point, 50 μl of the Ionomycin solution were added to each well of the assay plate to give a final Ionomycin concentration of 2 μM. For the determination of the IC50 values the minimal fluorescence value was subtracted from the maximal fluorescence value for the fifteenth to fifty-fifth measuring points. The calculation of the IC50 values via the percentage inhibitions of Ca^2+ efflux out of cells (forward mode) effected by the test compound was performed in Biost@t Speed 2.0. “NCX1fw IC50” in Table 2 means the IC50 value for inhibition of NCX1 in forward mode (in μM (micromol/liter)).

Sprague-Dawley rats = assay: In vivo method for determining the effect on heart contractility (left ventricular dp/dtmax); conditions: Rattus norvegicus, iv, read-out: Contractility increase (%)
Experimental: Adult male Sprague-Dawley rats (Harlan Winkelmann, Borchen, Germany) weighing 340 to 370 g were anesthetized with pentobarbital (100 mg/kg i.p.) and ventilated with a mixture of oxygen (40%) and room air (60%) at a tidal volume of 1 ml/100 g at 60 breaths/min. Body temperature was maintained at 36.5±0.3° C. with a heating lamp and was monitored with a rectal thermo sensor. Systemic blood pressure was measured in the left carotid artery using a pressure transducer (Combitrans; B. Braun Melsungen AG, Melsungen, Germany) connected to a DC-bridge-amplifier (PLUGSYS/ADC Type 663; Harvard Apparatus GmbH, March-Hugstetten, Germany). The electrocardiogram was measured as lead II via subcutaneously placed electrodes connected to a Heart-Rate-Module ([…] Type 669; Harvard Apparatus GmbH, March-Hugstetten, Germany). A micro-tip catheter (2 French, SPR-320; Millar Instruments, Houston, Tex., USA) was placed via the right carotid artery into the left ventricle, and the left ventricular pressure (LVP) and the enddiastolic pressure (EDP) were continuously measured. Registration of the hemodynamic data was performed via an analog digital converter by a personal computer using Notocord software (HEM version 3.5). Left ventricular contractility (dp/dtmax) and relaxation (dp/dtmin) were calculated from the LVP signal. For intravenous administration of the test compounds, the left jugular vein was prepared and a PP-50 catheter was inserted. Test compounds were administered either by intravenous bolus injection or by intravenous infusion by means of an infusion pump (Unita; B. Braun Melsungen AG, Melsungen, Germany). […] In a typical experiment, several dosages of the test compound were administered subsequently at increasing doses. Statistical significance of the data obtained with drug vs. control experiments, in which solvent was administered, was evaluated with the 2-sided ANOVA test (program Everstat). Increases in left ventricular contractility (percent increase) by example compounds are given in Table 3 in comparison to control experiments in which solvent was administered.

SMILES	IC50 (human NCX1 [1])	IC50 (human NCX1 [2])	inhibition at 10 µM (human NCX1 [2])	change in vivo at 0.03 mg/kg/min (Sprague-Dawley rats)	change in vivo at 0.1 mg/kg/min (Sprague-Dawley rats)
O=C(NCc1ccno1)c1cnc(Oc2ccc3c(c2)CCC(c2cccnc2)O3)s1 (stereo not shown) [Example 58, hydrochloride]	600 nM	8300 nM			
Cc1nn(C)c(C)c1S(=O)(=O)NCc1cnc(Oc2ccc3c(c2)CCC(c2ccccc2)O3)s1 (stereo not shown) [Example 125, 1,3,5-Trimethyl-1H-pyrazole-4-sulfonic acid [2-(2-phenyl-chroman-6-yloxy)-thiazol-5-ylmethyl]-amide]	9200 nM		20%		
COC(=O)C(C)(C)NC(=O)c1cnc(Oc2ccc3c(c2)CC[C@@H](c2ccccc2)O3)s1 [Example 182]	600 nM		8%		
CCOC(=O)[C@@H]1CCCC[C@@H]1NC(=O)c1cnc(Oc2ccc3c(c2)CC[C@@H](c2ccccc2)O3)s1 [Example 189]	600 nM		17%		
O=C(c1cnc(Oc2ccc3c(c2)CC[C@@H](c2ccccc2)O3)s1)N1CCOCC1 [Example 214]	500 nM	4500 nM			
Cc1ccccc1C1CCc2cc(Oc3ncc(C(=O)NCCN4CCNC4=O)s3)ccc2O1 (stereo not shown) [Example 216, 2-(2-o-Tolyl-chroman-6-yloxy)-thiazole-5-carboxylic acid [2-(2-oxo-imidazolidin-1-yl)-ethyl]-amide]	300 nM	1900 nM			
O=C(O)C1CN(C(=O)c2cnc(Oc3ccc4c(c3)CC[C@@H](c3ccccc3)O4)s2)CC1C(F)(F)F (stereo partly shown) [Example 243]	700 nM		19%		
O=C(NC1C2CNCC21)c1cnc(Oc2ccc3c(c2)CC[C@@H](c2ccccc2)O3)s1 (stereo partly shown) [Example 255]	300 nM	600 nM			
COC(=O)[C@@H](C)NC(=O)c1cnc(Oc2ccc3c(c2)CCC(c2cccnc2)O3)s1 (stereo partly shown) [Example 275]	3100 nM	9900 nM			
CCCNC(=O)c1cnc(Oc2ccc3c(c2)CCC(c2ccccc2)O3)s1 (stereo not shown) [Example 321, 2-(2-Phenyl-chroman-6-yloxy)-thiazole-5-carboxylic acid propylamide]	400 nM	1500 nM			
Cc1ccccc1C1CCc2cc(Oc3nc(C)c(C(=O)NCCO)s3)ccc2O1 (stereo not shown) [Example 335]	300 nM	900 nM			
Cc1ccccc1[C@@H]1CCc2cc(Oc3ncc(C(=O)NCCOP(=O)(O)O)s3)ccc2O1 [Example 345, Phosphoric acid mono-(2-{[2-((S)-2-o-tolyl-chroman-6-yloxy)-thiazole-5-carbonyl]-amino}-ethyl) ester disodium salt]	70 nM	3000 nM		32%	85%
Cc1ccc(F)cc1C1CCc2cc(Oc3ncc(C(=O)N(C)C)s3)ccc2O1 (stereo not shown) [Example 348]	640 nM	800 nM			

The remaining compounds from weak to strong by IC50 (human NCX1 [1]), led by results:

IC50 (human NCX1 [1])	IC50 (human NCX1 [2])	inhibition at 10 µM (human NCX1 [2])	SMILES	change in vivo at 0.03 mg/kg/min (Sprague-Dawley rats)	change in vivo at 0.1 mg/kg/min (Sprague-Dawley rats)
300 nM	1200 nM		O=C(NCc1ccnc(Cl)c1)c1cnc(Oc2ccc3c(c2)CCC(c2ccccc2)O3)s1 (stereo not shown) [Example 39, 2-(2-Phenyl-chroman-6-yloxy)-thiazole-5-carboxylic acid (2-chloro-pyridin-4-ylmethyl)-amide]		
300 nM		46%	c1ccc(C2CCc3cc(Oc4ncc(CNCc5cn6ccsc6n5)s4)ccc3O2)cc1 (stereo not shown) [Example 158]		
300 nM	800 nM		O=C(NCc1ccncc1)c1sc(Oc2ccc3c(c2)CCC(c2ccccc2)O3)nc1Cl (stereo not shown) [Example 177, 4-Chloro-2-(2-phenyl-chroman-6-yloxy)-thiazole-5-carboxylic acid (pyridin-4-ylmethyl)-amide hydrochloride]		
300 nM	1600 nM		O=C(NC(CCO)C1CC1)c1cnc(Oc2ccc3c(c2)CC[C@@H](c2ccccc2)O3)s1 (stereo partly shown) [Example 206]		
210 nM		31%	O=C(NCCN1CCNC1=O)c1csc(Oc2ccc3c(c2)CC[C@@H](c2ccccc2)O3)n1 [Example 352]		
200 nM	3100 nM		c1ccc(C2CCc3cc(Oc4ncc(CNC5CC5)s4)ccc3O2)cc1 (stereo not shown) [Example 103]		
200 nM	2600 nM		c1ccc(C2CCc3cc(Oc4ncc(CNCc5ccncc5)s4)ccc3O2)cc1 (stereo not shown) [Example 134, [2-(2-Phenyl-chroman-6-yloxy)-thiazol-5-ylmethyl]-pyridin-4-ylmethyl-amine]		
200 nM		26%	Cc1ccccc1[C@H]1CCc2cc(Oc3ncc(C(=O)NCCO)s3)ccc2O1 [Example 325, 2-((R)-2-o-Tolyl-chroman-6-yloxy)-thiazole-5-carboxylic acid (2-hydroxy-ethyl)-amide]		
100 nM	200 nM		Cc1nc(Oc2ccc3c(c2)CCC(c2ccccc2)O3)sc1C(=O)NCc1ccncc1 (stereo not shown) [Example 59, hydrochloride]		
